Assay results published in patent publication US20170190671A1, “BIS(ARYL)CATECHOL DERIVATIVES AS HERBICIDES” (E I DU PONT DE NEMOURS AND COMPANY, priority 2014, published 2017).

Columns and labels:
Format in all cases: in vivo
[1] = tested on: barnyardgrass (Echinochloa crus-galli); experiment: Test B flooded paddy; details: Echinochloa crus-galli, 336 h; 250 g ai/ha, Flood, 13 to 15 days, scale 0 (no effect) to 100 (complete control); read-out: Plant response rating, Barnyardgrass
Procedure, shortened: (§1)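 Test compounds are applied straight into paddy water held 3 cm above the soil surface, with that flood maintained for the whole test. After 13 to 15 days in the greenhouse, each species is scored visually relative to controls.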

[2] = tested on: ducksalad (Heteranthera limosa); experiment: Test B flooded paddy; details: Heteranthera limosa, 336 h; 250 g ai/ha, Flood, 13 to 15 days, scale 0 (no effect) to 100 (complete control); read-out: Plant response rating, Ducksalad
Procedure, shortened: as §1

rice (Oryza sativa) = experiment: Test B flooded paddy; details: Oryza sativa, 336 h; 250 g ai/ha, Flood, 13 to 15 days, scale 0 (no effect) to 100 (complete control); read-out: Plant response rating, Rice
Procedure, shortened: as §1

[3] = tested on: sedge, umbrella (small-flower umbrella sedge, Cyperus difformis); experiment: Test B flooded paddy; details: Cyperus difformis, 336 h; 250 g ai/ha, Flood, 13 to 15 days, scale 0 (no effect) to 100 (complete control); read-out: Plant response rating, Sedge, Umbrella
Procedure, shortened: as §1

[4] = tested on: Italian ryegrass (Lolium multiflorum); experiment: Test A preemergence; details: Lolium multiflorum, pre-emergence, 240 h, 0 to 100 scale (0 no effect, 100 complete control), read-out: Ryegrass, Italian plant response rating
Procedure, shortened: (§2)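 Injury scores run from 0, no effect, to 100, complete control, judged by eye against untreated plants roughly 10 days after treatment. Chemicals carried a surfactant in a non-phytotoxic solvent and went onto loam–sand soil preemergence or onto one- to two-leaf seedlings postemergence.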

[5] = tested on: barnyardgrass (Echinochloa crus-galli); experiment: Test A preemergence; details: Echinochloa crus-galli, pre-emergence, 240 h, 0 to 100 scale (0 no effect, 100 complete control), read-out: Barnyardgrass plant response rating
Procedure, shortened: as §2

[6] = tested on: giant foxtail (Setaria faberii); experiment: Test A preemergence; details: Setaria faberi, pre-emergence, 240 h, 0 to 100 scale (0 no effect, 100 complete control), read-out: Foxtail, Giant plant response rating
Procedure, shortened: as §2

kochia (Kochia scoparia) [7] = experiment: Test A preemergence; details: Bassia scoparia, pre-emergence, 240 h, 0 to 100 scale (0 no effect, 100 complete control), read-out: Kochia plant response rating
Procedure, shortened: as §2

[8] = tested on: pigweed (Amaranthus retroflexus); experiment: Test A preemergence; details: Amaranthus retroflexus, pre-emergence, 240 h, 0 to 100 scale (0 no effect, 100 complete control), read-out: Pigweed plant response rating
Procedure, shortened: as §2

[9] = tested on: ragweed (common ragweed, Ambrosia elatior); experiment: Test A preemergence; details: Ambrosia artemisiifolia, pre-emergence, 240 h, 0 to 100 scale (0 no effect, 100 complete control), read-out: Ragweed plant response rating
Procedure, shortened: as §2

[10] = tested on: Italian ryegrass (Lolium multiflorum); experiment: Test A postemergence; details: Lolium multiflorum, post-emergence, 240 h, 0 to 100 scale, read-out: Plant response rating, Ryegrass, Italian
Procedure, shortened: as §2

[11] = tested on: barnyardgrass (Echinochloa crus-galli); experiment: Test A postemergence; details: Echinochloa crus-galli, post-emergence, 240 h, 0 to 100 scale, read-out: Plant response rating, Barnyardgrass
Procedure, shortened: as §2

[12] = tested on: blackgrass (Alopecurus myosuroides); experiment: Test A postemergence; details: Alopecurus myosuroides, post-emergence, 240 h, 0 to 100 scale, read-out: Plant response rating, Blackgrass
Procedure, shortened: as §2

corn (Zea mays) = experiment: Test A postemergence; details: Zea mays, post-emergence, 240 h, 0 to 100 scale
Procedure, shortened: as §2

[13] = tested on: galium (catchweed bedstraw, Galium aparine); experiment: Test A postemergence; details: Galium, post-emergence, 240 h, 0 to 100 scale, read-out: Plant response rating, Galium
Procedure, shortened: as §2

[14] = tested on: giant foxtail (Setaria faberii); experiment: Test A postemergence; details: Setaria faberi, post-emergence, 240 h, 0 to 100 scale, read-out: Plant response rating, Foxtail, Giant
Procedure, shortened: as §2

kochia (Kochia scoparia) [15] = experiment: Test A postemergence; details: Bassia scoparia, post-emergence, 240 h, 0 to 100 scale, read-out: Plant response rating, Kochia
Procedure, shortened: as §2

[16] = tested on: pigweed (Amaranthus retroflexus); experiment: Test A postemergence; details: Amaranthus retroflexus, post-emergence, 240 h, 0 to 100 scale, read-out: Plant response rating, Pigweed
Procedure, shortened: as §2

[17] = tested on: ragweed (common ragweed, Ambrosia elatior); experiment: Test A postemergence; details: Ambrosia artemisiifolia, post-emergence, 240 h, 0 to 100 scale, read-out: Plant response rating, Ragweed
Procedure, shortened: as §2

[18] = tested on: wheat (Triticum aestivum); experiment: Test A postemergence; details: Triticum aestivum, post-emergence, 240 h, 0 to 100 scale, read-out: Plant response rating, Wheat
Procedure, shortened: as §2

[19] = tested on: galium (catchweed bedstraw, Galium aparine); experiment: Test C preemergence; details: Galium, pre-emergence, 336 h, scale 0 to 100, read-out: Plant response rating, Galium
Procedure, shortened: (§3)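 Greenhouse test; preemergence to seeds in loam/sand soil, or postemergence spray to 2-18 cm, 1- to 4-leaf plants in peat/vermiculite medium; compound in non-phytotoxic solvent plus surfactant. Visual rating vs controls at 13-15 d, 0 = no effect, 100 = complete control.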

[20] = tested on: lambsquarters (Chenopodium album); experiment: Test C preemergence; details: Chenopodium album, pre-emergence, 336 h, scale 0 to 100, read-out: Plant response rating, Lambsquarters
Procedure, shortened: as §3

[21] = tested on: yellow nutsedge (Cyperus esculentus); experiment: Test C preemergence; details: Cyperus, pre-emergence, 336 h, scale 0 to 100, read-out: Plant response rating, Nutsedge, Yellow
Procedure, shortened: as §3

N#Cc1cccc(Oc2ncc(Cl)cn2)c1Oc1ncc(C(F)(F)F)cn1 [Compound 38, 3-[(5-chloro-2-pyrimidinyl)oxy]-2-[[5-(trifluoromethyl)-2-pyrimidinyl]oxy]-benzonitrile]
95%: pest or weed control at 62 g/ha ([20]; 62 g ai/ha, preemergence)
80%: pest or weed control at 31 g/ha ([5]; 31 g ai/ha) | pest or weed control at 31 g/ha ([13]; 31 g ai/ha) | pest or weed control at 16 g/ha ([19]; Preemergence, 16 g ai/ha)
85%: pest or weed control at 250 g/ha [1] | pest or weed control at 16 g/ha ([20]; Preemergence, 16 g ai/ha) | pest or weed control at 125 g/ha ([21]; 125 g ai/ha, preemergence)
30%: pest or weed control at 31 g/ha ([9]; 31 g ai/ha)
100%: pest or weed control at 250 g/ha [2] | pest or weed control at 250 g/ha [3] | pest or weed control at 125 g/ha ([5]; 125 g ai/ha) | pest or weed control at 31 g/ha ([6]; 31 g ai/ha) | pest or weed control at 125 g/ha ([6]; 125 g ai/ha) | pest or weed control at 125 g/ha (kochia (Kochia scoparia) [7]; 125 g ai/ha) | pest or weed control at 31 g/ha ([8]; 31 g ai/ha) | pest or weed control at 125 g/ha ([8]; 125 g ai/ha) | pest or weed control at 125 g/ha ([13]; 125 g ai/ha) | pest or weed control at 31 g/ha ([14]; 31 g ai/ha) | pest or weed control at 125 g/ha ([14]; 125 g ai/ha) | pest or weed control at 31 g/ha (kochia (Kochia scoparia) [15]; 31 g ai/ha) | pest or weed control at 125 g/ha (kochia (Kochia scoparia) [15]; 125 g ai/ha) | pest or weed control at 31 g/ha ([16]; 31 g ai/ha) | pest or weed control at 125 g/ha ([16]; 125 g ai/ha) | pest or weed control at 62 g/ha ([19]; 62 g ai/ha, preemergence) | pest or weed control at 125 g/ha ([19]; 125 g ai/ha, preemergence)
50%: pest or weed control at 31 g/ha ([10]; 31 g ai/ha)
90%: pest or weed control at 125 g/ha ([4]; 125 g ai/ha) | pest or weed control at 31 g/ha (kochia (Kochia scoparia) [7]; 31 g ai/ha) | pest or weed control at 125 g/ha ([9]; 125 g ai/ha) | pest or weed control at 125 g/ha ([10]; 125 g ai/ha) | pest or weed control at 31 g/ha ([11]; 31 g ai/ha) | pest or weed control at 125 g/ha ([11]; 125 g ai/ha) | pest or weed control at 125 g/ha ([12]; 125 g ai/ha) | Corn plant response rating (crop injury, 0 = no effect, 100 = complete kill) at 125 g/ha (corn (Zea mays); 125 g ai/ha) | plant injury at 125 g/ha ([18]; 125 g ai/ha) | pest or weed control at 31 g/ha ([19]; 31 g ai/ha, preemergence) | pest or weed control at 31 g/ha ([20]; 31 g ai/ha, preemergence)
0%: pest or weed control at 16 g/ha ([21]; Preemergence, 16 g ai/ha)
70%: pest or weed control at 125 g/ha ([17]; 125 g ai/ha) | pest or weed control at 62 g/ha ([21]; 62 g ai/ha, preemergence)
45%: plant injury at 250 g/ha (rice (Oryza sativa))
40%: pest or weed control at 31 g/ha ([12]; 31 g ai/ha) | Corn plant response rating (crop injury, 0 = no effect, 100 = complete kill) at 31 g/ha (corn (Zea mays); 31 g ai/ha) | pest or weed control at 31 g/ha ([17]; 31 g ai/ha)
20%: plant injury at 31 g/ha ([18]; 31 g ai/ha) | pest or weed control at 31 g/ha ([21]; 31 g ai/ha, preemergence)
10%: pest or weed control at 31 g/ha ([4]; 31 g ai/ha)
98%: pest or weed control at 125 g/ha ([20]; 125 g ai/ha, preemergence)
